Assay type in all cases: functional
For test [1], the system named is Enterococcus faecalis. Put plainly: Minimum inhibitory concentration against macrolide susceptible strain of Enterococcus faecalis (MB5407).
Test [2] has as its system Bacillus subtilis. Put plainly: Minimum inhibitory concentration against macrolide susceptible strains of Bacillus subtilis (MB5586).
The subject of test [3] is Enterococcus faecium. Put plainly: Minimum inhibitory concentration against macrolide susceptible strain of Enterococcus faecium (MB5516).
Test [4] concerns Streptococcus pneumoniae. Put plainly: Minimum inhibitory concentration against macrolide susceptible strain of Streptococcus pneumoniae (MB3957).
The subject of test [5] is Staphylococcus aureus. Put plainly: Minimum inhibitory concentration against macrolide susceptible strain of Staphylococcus aureus (MB2865).
Test [6] relates to Streptococcus pyogenes. Put plainly: Minimum inhibitory concentration against macrolide susceptible strain of Streptococcus pyogenes (MB2874).

Converted amounts (≈) assume the structure as drawn.

Take `CC[C@H]1OC(=O)[C@H](C)[C@@H](O[C@H]2C[C@@](C)(OC)[C@@H](OC)[C@@H](C)O2)[C@H](C)[C@@H](O[C@@H]2O[C@H](C)C[C@@H](N(C)C)[C@H]2O)[C@](C)(O)C[C@@H](C)N(C)C[C@H](C)[C@@H](O)[C@]1(C)O`: the MIC worked out at 8 µg/mL (≈ 10.5 µM) in test [1]; 4 µg/mL (≈ 5.24 µM) in test [2]; 2 µg/mL (≈ 2.62 µM) in test [3]; 0.5 µg/mL (≈ 0.655 µM) in test [4]; 8 µg/mL (≈ 10.5 µM) in test [5]; 0.03 µg/mL (≈ 0.0393 µM) in test [6].

On to `CC[C@H]1OC(=O)[C@H](C)[C@@H](O[C@H]2C[C@@](C)(OC)[C@@H](OC)[C@@H](C)O2)[C@H](C)[C@@H](O[C@@H]2O[C@H](C)C[C@@H](N(C)C)[C@H]2O)[C@](C)(O)C[C@@H](C)N(C)C[C@H](C)[C@@H](OC)[C@]1(C)O`, for which the MIC in test [1] was 32 µg/mL (≈ 41.2 µM); in test [2], 16 µg/mL (≈ 20.6 µM); in test [3], 16 µg/mL (≈ 20.6 µM); in test [4], 2 µg/mL (≈ 2.57 µM); in test [5], 32 µg/mL (≈ 41.2 µM); in test [6], 0.5 µg/mL (≈ 0.643 µM).

Turning to `CC[C@H]1OC(=O)[C@H](C)[C@@H](O[C@H]2C[C@@](C)(OC)[C@@H](OC)[C@@H](C)O2)[C@H](C)[C@@H](O[C@@H]2O[C@H](C)C[C@@H](N(C)C)[C@H]2O)[C@](C)(O)C[C@@H](C)N(C)C[C@H](C)[C@@H](O)[C@]1(C)OC`, the MIC in test [1] was 16 µg/mL (≈ 20.6 µM); in test [2] it was 4 µg/mL (≈ 5.15 µM); in test [3], 4 µg/mL (≈ 5.15 µM); in test [4], 1 µg/mL (≈ 1.29 µM); in test [5] it was 8 µg/mL (≈ 10.3 µM); in test [6], 0.25 µg/mL (≈ 0.322 µM).

Consider `CC[C@H]1OC(=O)[C@H](C)[C@@H](O[C@H]2C[C@@](C)(OC)[C@@H](OC)[C@@H](C)O2)[C@H](C)[C@@H](O[C@@H]2O[C@H](C)C[C@@H](N(C)C)[C@H]2O)[C@](C)(O)C[C@@H](C)CN(C)[C@H](C)[C@@H](OC)[C@]1(C)OC`, for which the MIC in test [1] was found to be 16 µg/mL (≈ 20.2 µM); in test [2], 8 µg/mL (≈ 10.1 µM); in test [3] it was 4 µg/mL (≈ 5.06 µM); in test [4] it was 1 µg/mL (≈ 1.26 µM); in test [5], 8 µg/mL (≈ 10.1 µM); in test [6] it was 0.25 µg/mL (≈ 0.316 µM).

Consider `CC[C@H]1OC(=O)[C@H](C)[C@@H](O[C@H]2C[C@@](C)(OC)[C@@H](O)[C@@H](C)O2)[C@H](C)[C@@H](O[C@@H]2O[C@H](C)C[C@@H](N(C)C)[C@H]2O)[C@](C)(O)C[C@@H](C)CN(C)[C@H](C)[C@@H](OC)[C@]1(C)OC`, for which the minimal inhibitory concentration (MIC) in test [1] stood at 16 µg/mL (≈ 20.6 µM); in test [2], 4 µg/mL (≈ 5.15 µM); in test [3] it was 2 µg/mL (≈ 2.57 µM); in test [4], 1 µg/mL (≈ 1.29 µM); in test [5] it was 8 µg/mL (≈ 10.3 µM); in test [6], 0.12 µg/mL (≈ 0.154 µM).

On to `CC[C@H]1OC(=O)[C@H](C)[C@@H](O[C@H]2C[C@@](C)(OC)[C@@H](O)[C@@H](C)O2)[C@H](C)[C@@H](O[C@@H]2O[C@H](C)C[C@@H](N(C)C)[C@H]2O)[C@](C)(O)C[C@@H](C)CN(C)[C@H](C)[C@@H](OC)[C@]1(C)O`, for which the MIC amounted to 8 µg/mL (≈ 10.5 µM) in test [1]; 1 µg/mL (≈ 1.31 µM) in test [2]; 0.5 µg/mL (≈ 0.655 µM) in test [3]; 0.03 µg/mL (≈ 0.0393 µM) in test [4]; 1 µg/mL (≈ 1.31 µM) in test [5]; 0.03 µg/mL (≈ 0.0393 µM) in test [6].

As for `CC[C@H]1OC(=O)[C@H](C)[C@@H](O[C@H]2C[C@@](C)(OC)[C@@H](O)[C@@H](C)O2)[C@H](C)[C@@H](O[C@@H]2O[C@H](C)C[C@@H](N(C)C)[C@H]2O)[C@](C)(O)C[C@@H](C)CN(C)[C@H](C)[C@@H](O)[C@]1(C)OC`, the MIC amounted to 4 µg/mL (≈ 5.24 µM) in test [1]; 0.25 µg/mL (≈ 0.328 µM) in test [3]; 0.03 µg/mL (≈ 0.0393 µM) in test [4]; 1 µg/mL (≈ 1.31 µM) in test [5]; 0.03 µg/mL (≈ 0.0393 µM) in test [6].

Regarding `CC[C@H]1OC(=O)[C@H](C)[C@@H](O[C@H]2C[C@@](C)(OC)[C@H](O)[C@H](C)O2)[C@H](C)[C@@H](O[C@@H]2O[C@H](C)C[C@H](N(C)C)[C@H]2O)[C@](C)(O)C[C@@H](C)N(C)C[C@H](C)[C@@H](O)[C@]1(C)O`, the minimum inhibitory concentration (MIC) in test [1] was 2 µg/mL (≈ 2.67 µM); in test [2] it was 0.3 µg/mL (≈ 0.401 µM); in test [3], 0.125 µg/mL (≈ 0.167 µM); in test [4] it was less than 0.06 µg/mL; in test [5], 0.3 µg/mL (≈ 0.401 µM); in test [6], less than 0.06 µg/mL.

In the case of `CC[C@H]1OC(=O)[C@H](C)[C@@H](O[C@H]2C[C@@](C)(OC)[C@@H](OC)[C@@H](C)O2)[C@H](C)[C@@H](O[C@@H]2O[C@H](C)C[C@@H](N(C)C)[C@H]2O)[C@](C)(O)C[C@@H](C)N(C)C[C@H](C)[C@@H](OC)[C@]1(C)OC`, the minimal inhibitory concentration (MIC) came out at 32 µg/mL (≈ 40.5 µM) in test [1]; 2 µg/mL (≈ 2.53 µM) in test [2]; 8 µg/mL (≈ 10.1 µM) in test [3]; 4 µg/mL (≈ 5.06 µM) in test [4]; 32 µg/mL (≈ 40.5 µM) in test [5]; 0.5 µg/mL (≈ 0.632 µM) in test [6].

`CC[C@H]1OC(=O)[C@H](C)[C@@H](O[C@H]2C[C@@](C)(OC)[C@@H](O)[C@H](C)O2)[C@H](C)[C@@H](O[C@@H]2O[C@H](C)C[C@H](N(C)C)[C@H]2O)[C@](C)(O)C[C@@H](C)CN(C)[C@H](C)[C@@H](O)[C@]1(C)O` [AZITHROMYCIN]: the MIC in test [1] was 4 µg/mL (≈ 5.34 µM); in test [2] it was 1 µg/mL (≈ 1.34 µM); in test [3], 0.25 µg/mL (≈ 0.334 µM); in test [4], less than 0.06 µg/mL; in test [5], 0.5 µg/mL (≈ 0.668 µM); in test [6] it was 0.03 µg/mL (≈ 0.0401 µM).

The MIC is the lowest concentration found to suppress growth. A lower MIC goes with greater potency.
